In publication PMC5513037, “Examining the influence of specificity ligands and ATP-competitive ligands on the overall effectiveness of bivalent kinase inhibitors” (Proteome Science, 2017):

Assays:
ALPK3 = biological target: T1, ALPK3 (Homo sapiens, UniProt Q96L96); experiment: Imatinib-matrix competition in K562 lysate; assay type: binding; settings: read-out: RB50 (the source's name)
T1 construct: endogenous in cells; host or cells: K562
Text: (§1) Data were visualized for further analysis using Spotfire DXP.

RP1 = biological target: T2, RP1 (Homo sapiens, UniProt P56715); experiment: Imatinib-matrix competition in K562 lysate; assay type: binding; settings: read-out: RB50 (the source's name)
T2 construct: endogenous in cells; host or cells: K562
Text: as §1

PBK = biological target: T3, PBK (Homo sapiens, UniProt Q96KB5); experiment: Imatinib-matrix competition in K562 lysate; assay type: binding; settings: read-out: RB50 (the source's name)
T3 construct: endogenous in cells; host or cells: K562
T3 sequence (Q96KB5 1-322): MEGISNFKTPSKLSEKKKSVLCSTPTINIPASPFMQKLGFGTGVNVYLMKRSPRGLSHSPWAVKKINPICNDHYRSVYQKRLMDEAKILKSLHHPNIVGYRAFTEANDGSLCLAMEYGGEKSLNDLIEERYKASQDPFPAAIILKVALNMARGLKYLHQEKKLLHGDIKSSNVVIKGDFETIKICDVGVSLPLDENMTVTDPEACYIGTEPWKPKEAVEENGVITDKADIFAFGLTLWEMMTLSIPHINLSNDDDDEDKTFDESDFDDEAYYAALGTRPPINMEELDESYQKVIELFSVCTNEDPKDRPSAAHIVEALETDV
Text: as §1

VRK3 = biological target: T4, VRK3 (Homo sapiens, UniProt Q8IV63); experiment: Imatinib-matrix competition in K562 lysate; assay type: binding; settings: read-out: RB50 (the source's name)
T4 construct: endogenous in cells; host or cells: K562
Text: as §1

SMG1 = biological target: T5, SMG1 (Homo sapiens, UniProt Q96Q15); experiment: Imatinib-matrix competition in K562 lysate; assay type: binding; settings: read-out: RB50 (the source's name)
T5 construct: endogenous in cells; host or cells: K562
Text: as §1

TRRAP = biological target: T6, TRRAP (Homo sapiens, UniProt Q9Y4A5); experiment: Imatinib-matrix competition in K562 lysate; assay type: binding; settings: read-out: RB50 (the source's name)
T6 construct: endogenous in cells; host or cells: K562
Text: as §1

PRKDC = biological target: T7, PRKDC (Homo sapiens, UniProt P78527); experiment: Imatinib-matrix competition in K562 lysate; assay type: binding; settings: read-out: RB50 (the source's name)
T7 construct: endogenous in cells; host or cells: K562
Text: as §1

ATR = biological target: T8, ATR (Homo sapiens, UniProt Q13535); experiment: Imatinib-matrix competition in K562 lysate; assay type: binding; settings: read-out: RB50 (the source's name)
T8 construct: endogenous in cells; host or cells: K562
Text: as §1

RPS6KB2 = biological target: T9, RPS6KB2 (Homo sapiens, UniProt Q9UBS0); experiment: Imatinib-matrix competition in K562 lysate; assay type: binding; settings: read-out: RB50 (the source's name)
T9 construct: endogenous in cells; host or cells: K562
Text: as §1

SRM = biological target: T10, SRM (Homo sapiens, UniProt P19623); experiment: Imatinib-matrix competition in K562 lysate; assay type: binding; settings: read-out: RB50 (the source's name)
T10 construct: K562 lysate (5 mg per treatment) was preincubated; endogenous in cells; host or cells: K562 lysate
Text: as §1

TTN = biological target: T11, TTN (Homo sapiens, UniProt Q8WZ42); experiment: Imatinib-matrix competition in K562 lysate; assay type: binding; settings: read-out: RB50 (the source's name)
T11 construct: endogenous in cells; host or cells: K562
Text: as §1

EEF2K = biological target: T12, EEF2K (Homo sapiens, UniProt O00418); experiment: Imatinib-matrix competition in K562 lysate; assay type: binding; settings: read-out: RB50 (the source's name)
T12 construct: endogenous in cells; host or cells: K562 lysate
T12 sequence (O00418 1-725): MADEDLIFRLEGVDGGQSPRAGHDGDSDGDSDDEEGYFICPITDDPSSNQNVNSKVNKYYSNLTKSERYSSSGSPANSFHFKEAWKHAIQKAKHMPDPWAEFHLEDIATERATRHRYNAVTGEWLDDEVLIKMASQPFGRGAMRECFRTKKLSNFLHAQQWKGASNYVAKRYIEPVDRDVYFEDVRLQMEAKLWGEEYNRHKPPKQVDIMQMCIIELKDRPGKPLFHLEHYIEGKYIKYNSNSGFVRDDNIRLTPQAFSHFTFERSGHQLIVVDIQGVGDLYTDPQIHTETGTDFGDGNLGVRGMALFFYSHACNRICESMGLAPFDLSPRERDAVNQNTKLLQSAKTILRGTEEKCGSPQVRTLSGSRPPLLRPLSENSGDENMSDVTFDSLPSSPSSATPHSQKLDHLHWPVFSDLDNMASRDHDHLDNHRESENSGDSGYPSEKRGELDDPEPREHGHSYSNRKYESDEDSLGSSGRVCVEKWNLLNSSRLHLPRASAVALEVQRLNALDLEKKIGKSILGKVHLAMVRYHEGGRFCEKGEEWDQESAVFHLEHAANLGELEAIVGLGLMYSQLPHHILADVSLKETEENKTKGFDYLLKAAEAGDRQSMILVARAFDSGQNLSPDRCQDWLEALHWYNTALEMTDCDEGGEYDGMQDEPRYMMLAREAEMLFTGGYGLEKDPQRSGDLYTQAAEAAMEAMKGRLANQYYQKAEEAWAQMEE
Text: as §1

BRDT = BRDT (Homo sapiens, UniProt Q58F21); experiment: biochemical
PIK3R4 = biological target: T13, PIK3R4 (Homo sapiens, UniProt Q99570); experiment: Imatinib-matrix competition in K562 lysate; assay type: binding; settings: read-out: RB50 (the source's name)
T13 construct: endogenous in cells; host or cells: K562

PSKH1 = PSKH1 (Homo sapiens, UniProt P11801); experiment: biochemical
CDK6 = biological target: T14, CDK6 (Homo sapiens, UniProt Q00534); experiment: KAM-matrix competition in K562 lysate; assay type: binding; settings: relative to 0 uM KAM = 0;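 also: median log10 fold change of treatment over DMSO control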
T14 construct: endogenous in cells; host or cells: K562
Procedure: (§2) Supplement 12953_2017_125_MOESM1_ESM.zip/MS_Supp Info.xlsx, sheet "KAM" | column: 10 uM KAM; 1 uM KAM; 0.1 uM KAM; 0.001 uM KAM

MAP3K11 = biological target: T15, MAP3K11 (Homo sapiens, UniProt Q16584); experiment: KAM-matrix competition in K562 lysate; assay type: binding; settings: relative to 0 uM KAM = 0;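 also: median log10 fold change of treatment over DMSO control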
T15 construct: endogenous in cells; host or cells: K562
Procedure: as §2

T15 sequence (Q16584 whole entry): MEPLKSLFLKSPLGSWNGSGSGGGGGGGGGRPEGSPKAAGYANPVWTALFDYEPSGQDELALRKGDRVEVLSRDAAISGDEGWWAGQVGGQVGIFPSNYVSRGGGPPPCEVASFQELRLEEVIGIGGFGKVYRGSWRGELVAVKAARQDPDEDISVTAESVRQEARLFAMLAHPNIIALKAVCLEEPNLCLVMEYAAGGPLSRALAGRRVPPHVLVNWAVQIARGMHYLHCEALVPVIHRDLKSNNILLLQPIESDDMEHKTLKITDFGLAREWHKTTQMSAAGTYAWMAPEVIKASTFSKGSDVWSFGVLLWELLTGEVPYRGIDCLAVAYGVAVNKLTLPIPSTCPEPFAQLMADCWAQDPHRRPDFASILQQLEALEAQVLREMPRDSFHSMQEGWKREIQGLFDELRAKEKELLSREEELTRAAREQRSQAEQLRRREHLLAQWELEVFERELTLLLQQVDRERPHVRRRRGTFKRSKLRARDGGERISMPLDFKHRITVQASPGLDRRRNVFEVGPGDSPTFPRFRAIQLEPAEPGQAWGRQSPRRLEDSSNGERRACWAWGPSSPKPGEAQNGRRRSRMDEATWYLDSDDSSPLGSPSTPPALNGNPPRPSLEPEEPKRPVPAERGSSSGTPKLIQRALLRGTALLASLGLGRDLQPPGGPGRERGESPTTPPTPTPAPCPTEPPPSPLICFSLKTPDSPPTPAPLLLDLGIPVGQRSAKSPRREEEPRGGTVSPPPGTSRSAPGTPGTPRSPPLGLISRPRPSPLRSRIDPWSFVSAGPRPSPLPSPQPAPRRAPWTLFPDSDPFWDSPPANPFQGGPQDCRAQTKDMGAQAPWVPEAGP
T14 sequence (Q00534 whole entry): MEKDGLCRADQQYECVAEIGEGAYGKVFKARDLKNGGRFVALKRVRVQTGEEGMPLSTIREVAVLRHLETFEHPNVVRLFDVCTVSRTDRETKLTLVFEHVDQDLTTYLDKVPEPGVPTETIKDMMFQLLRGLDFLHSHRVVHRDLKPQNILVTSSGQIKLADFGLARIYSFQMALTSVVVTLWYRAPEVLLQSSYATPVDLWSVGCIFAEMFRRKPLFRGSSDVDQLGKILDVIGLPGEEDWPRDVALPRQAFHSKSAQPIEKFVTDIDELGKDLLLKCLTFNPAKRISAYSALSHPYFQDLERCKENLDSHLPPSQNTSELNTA
T13 sequence (Q99570 2-1358 limits assumed): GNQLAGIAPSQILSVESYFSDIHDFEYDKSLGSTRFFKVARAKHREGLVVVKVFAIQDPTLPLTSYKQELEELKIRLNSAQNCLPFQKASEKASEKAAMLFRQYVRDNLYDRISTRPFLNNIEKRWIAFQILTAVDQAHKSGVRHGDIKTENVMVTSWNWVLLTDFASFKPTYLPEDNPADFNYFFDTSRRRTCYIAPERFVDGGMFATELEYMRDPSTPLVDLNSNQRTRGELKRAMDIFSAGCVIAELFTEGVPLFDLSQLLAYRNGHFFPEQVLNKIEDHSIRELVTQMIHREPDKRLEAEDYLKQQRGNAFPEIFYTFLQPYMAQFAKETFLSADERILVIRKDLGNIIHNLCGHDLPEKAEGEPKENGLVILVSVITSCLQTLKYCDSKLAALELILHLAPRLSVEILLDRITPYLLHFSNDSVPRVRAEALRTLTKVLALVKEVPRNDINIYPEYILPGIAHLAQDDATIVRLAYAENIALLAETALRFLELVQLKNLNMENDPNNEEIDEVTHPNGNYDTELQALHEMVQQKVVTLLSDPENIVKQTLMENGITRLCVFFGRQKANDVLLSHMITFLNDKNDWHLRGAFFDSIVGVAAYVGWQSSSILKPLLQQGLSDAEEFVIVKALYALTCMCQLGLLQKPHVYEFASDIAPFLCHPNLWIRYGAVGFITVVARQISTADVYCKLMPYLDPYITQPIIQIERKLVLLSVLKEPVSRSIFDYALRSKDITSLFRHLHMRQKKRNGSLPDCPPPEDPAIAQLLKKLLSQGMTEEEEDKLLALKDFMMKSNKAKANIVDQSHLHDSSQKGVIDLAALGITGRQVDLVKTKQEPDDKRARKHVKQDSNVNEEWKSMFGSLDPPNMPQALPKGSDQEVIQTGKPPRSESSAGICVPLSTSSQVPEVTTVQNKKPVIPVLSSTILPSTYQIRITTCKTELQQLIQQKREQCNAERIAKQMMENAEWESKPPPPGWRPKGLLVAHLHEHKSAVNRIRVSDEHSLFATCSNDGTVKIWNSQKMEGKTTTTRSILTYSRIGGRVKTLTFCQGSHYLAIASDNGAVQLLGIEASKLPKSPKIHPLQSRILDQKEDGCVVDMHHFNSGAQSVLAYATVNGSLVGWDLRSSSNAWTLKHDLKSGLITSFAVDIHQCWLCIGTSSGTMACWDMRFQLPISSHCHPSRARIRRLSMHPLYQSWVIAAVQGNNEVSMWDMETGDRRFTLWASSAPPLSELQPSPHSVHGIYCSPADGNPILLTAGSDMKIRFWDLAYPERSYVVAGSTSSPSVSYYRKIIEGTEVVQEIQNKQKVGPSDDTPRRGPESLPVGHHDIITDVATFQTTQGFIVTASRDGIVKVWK
T13 sequence (Q8NEB9 whole entry partner): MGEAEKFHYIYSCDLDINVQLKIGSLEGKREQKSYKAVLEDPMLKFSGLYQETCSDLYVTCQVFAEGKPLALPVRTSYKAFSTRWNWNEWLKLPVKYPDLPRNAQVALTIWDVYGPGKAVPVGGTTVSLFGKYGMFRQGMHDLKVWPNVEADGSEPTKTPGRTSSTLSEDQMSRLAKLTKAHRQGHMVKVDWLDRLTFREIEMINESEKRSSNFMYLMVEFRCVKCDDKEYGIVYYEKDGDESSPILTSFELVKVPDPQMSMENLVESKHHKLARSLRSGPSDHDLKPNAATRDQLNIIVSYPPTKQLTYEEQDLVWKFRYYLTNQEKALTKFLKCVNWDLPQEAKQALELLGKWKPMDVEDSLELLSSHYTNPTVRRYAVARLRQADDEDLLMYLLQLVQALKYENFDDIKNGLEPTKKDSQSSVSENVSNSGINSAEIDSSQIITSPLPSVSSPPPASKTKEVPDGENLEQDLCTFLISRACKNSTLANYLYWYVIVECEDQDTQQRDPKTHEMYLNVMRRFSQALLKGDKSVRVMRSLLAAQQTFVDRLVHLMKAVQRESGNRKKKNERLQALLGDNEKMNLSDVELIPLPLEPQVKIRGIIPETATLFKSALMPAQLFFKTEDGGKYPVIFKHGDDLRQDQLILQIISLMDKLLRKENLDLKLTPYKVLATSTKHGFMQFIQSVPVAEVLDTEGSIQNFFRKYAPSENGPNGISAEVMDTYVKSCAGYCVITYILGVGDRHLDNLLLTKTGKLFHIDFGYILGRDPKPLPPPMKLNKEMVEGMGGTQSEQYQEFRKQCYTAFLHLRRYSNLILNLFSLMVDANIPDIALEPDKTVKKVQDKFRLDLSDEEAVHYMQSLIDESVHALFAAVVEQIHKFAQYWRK
T4 sequence (Q8IV63 whole entry): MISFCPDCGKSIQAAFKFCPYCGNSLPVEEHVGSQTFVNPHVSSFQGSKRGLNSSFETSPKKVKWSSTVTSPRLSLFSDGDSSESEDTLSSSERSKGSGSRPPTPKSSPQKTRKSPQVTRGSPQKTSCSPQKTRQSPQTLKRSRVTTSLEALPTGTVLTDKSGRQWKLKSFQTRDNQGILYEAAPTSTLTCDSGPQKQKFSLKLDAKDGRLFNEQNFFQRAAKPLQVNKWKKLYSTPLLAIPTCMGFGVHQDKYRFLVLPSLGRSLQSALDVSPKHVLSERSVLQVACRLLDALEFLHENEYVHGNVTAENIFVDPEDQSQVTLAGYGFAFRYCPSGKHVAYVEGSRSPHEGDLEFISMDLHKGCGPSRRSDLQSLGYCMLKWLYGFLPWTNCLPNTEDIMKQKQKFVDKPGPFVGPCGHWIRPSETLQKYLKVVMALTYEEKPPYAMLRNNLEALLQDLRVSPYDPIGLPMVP
T10 sequence (P19623 whole entry): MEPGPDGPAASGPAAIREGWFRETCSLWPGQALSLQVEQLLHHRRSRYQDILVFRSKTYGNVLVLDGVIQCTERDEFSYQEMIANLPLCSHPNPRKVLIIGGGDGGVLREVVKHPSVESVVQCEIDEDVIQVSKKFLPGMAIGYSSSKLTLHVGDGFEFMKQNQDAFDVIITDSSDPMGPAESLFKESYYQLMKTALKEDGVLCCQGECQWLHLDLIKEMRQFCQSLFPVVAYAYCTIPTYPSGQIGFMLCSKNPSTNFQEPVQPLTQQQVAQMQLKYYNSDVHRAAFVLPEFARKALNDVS
Chain of PSKH1 (P11801 whole entry): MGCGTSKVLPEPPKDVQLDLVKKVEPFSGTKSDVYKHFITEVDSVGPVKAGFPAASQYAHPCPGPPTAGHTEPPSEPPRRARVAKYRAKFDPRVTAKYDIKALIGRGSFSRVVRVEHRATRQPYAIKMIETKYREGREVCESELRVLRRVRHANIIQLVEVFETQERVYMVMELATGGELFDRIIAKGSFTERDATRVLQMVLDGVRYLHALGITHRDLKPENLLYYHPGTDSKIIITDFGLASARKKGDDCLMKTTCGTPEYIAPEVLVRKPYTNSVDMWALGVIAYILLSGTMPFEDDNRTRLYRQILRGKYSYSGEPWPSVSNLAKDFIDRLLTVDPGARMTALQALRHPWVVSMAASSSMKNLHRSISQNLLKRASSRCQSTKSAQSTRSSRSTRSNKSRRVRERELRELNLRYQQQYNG

Cc1ccc(NC(=O)c2ccc(CN3CCN(C)CC3)cc2)cc1Nc1nccc(-c2cccnc2)n1 [Imatinib]
IC50 (ALPK3): > 10 µM | IC50 (RP1): > 10 µM | IC50 (PBK): > 10 µM | IC50 (VRK3): > 10 µM | IC50 (SMG1): > 10 µM | IC50 (TRRAP): > 10 µM | IC50 (PRKDC): > 10 µM | IC50 (ATR): > 10 µM | IC50 (RPS6KB2): > 10 µM | IC50 (SRM): > 10 µM | IC50 (TTN): > 10 µM | IC50 (EEF2K): > 10 µM | IC50 (BRDT): > 10 µM | IC50 (PIK3R4): > 10 µM | IC50 (PSKH1): > 10 µM

N#CCc1ccc(Nc2nc(NCCCN)cc(Nc3cc(C4CC4)[nH]n3)n2)cc1 [KAM]
0.001 uM KAM (CDK6): 0.01418 | 0.1 uM KAM (CDK6): -0.05531 | 1 uM KAM (CDK6): -0.08871 | 10 uM KAM (CDK6): -0.05328 | 0.001 uM KAM (MAP3K11): -0.02883 | 0.1 uM KAM (MAP3K11): -0.2112 | 1 uM KAM (MAP3K11): -0.4525 | 10 uM KAM (MAP3K11): -0.59
